MIC data for 12 molecules are collected here from ChEMBL document CHEMBL1667745, “Synthesis and antibacterial evaluation of novel clarithromycin derivatives with C-4″ elongated arylalkyl groups against macrolide-resistant strains” (2011).

What all share (type): functional
The subject of assay [1] is Streptococcus pneumoniae. The assay is described as follows: Antimicrobial activity against erythromycin-susceptible Streptococcus pneumoniae ATCC 49619 by broth microdilution method. For orientation: In broth dilution the organism is exposed to a series of concentrations in liquid medium.
The subject of assay [2] is Streptococcus pneumoniae. The assay is described as follows: Antimicrobial activity against erythromycin-resistant Streptococcus pneumoniae B1 expressing the erm gene by broth microdilution method.
For assay [3], the system named is Streptococcus pneumoniae. The assay can be described thus: Antimicrobial activity against erythromycin-resistant Streptococcus pneumoniae A22072 expressing the mef gene by broth microdilution method.
The test system of assay [4] is Streptococcus pneumoniae. The assay can be described thus: Antimicrobial activity against erythromycin-resistant Streptococcus pneumoniae AB11 expressing the erm and mef gene by broth microdilution method.
Assay [5] concerns Staphylococcus aureus. The assay can be described thus: Antimicrobial activity against erythromycin-susceptible Staphylococcus aureus ATCC 25923 by broth microdilution method.
Assay [6] has as its system Staphylococcus aureus. The assay is described as follows: Antimicrobial activity against penicillin-susceptible Staphylococcus aureus P1 by broth microdilution method.
The test system of assay [7] is Streptococcus pyogenes. The assay is described as follows: Antimicrobial activity against erythromycin-susceptible Streptococcus pyogenes S2 by broth microdilution method.
The test system of assay [8] is Streptococcus pyogenes. The assay can be described thus: Antimicrobial activity against erythromycin-resistant Streptococcus pyogenes R2 by broth microdilution method.

Each structure is given as a SMILES string. ≈ marks a conversion by molar mass, not a printed value.

As usually defined, the MIC is the lowest concentration found to suppress growth. Higher therefore signals a need for much substance.

Regarding `CC[C@H]1OC(=O)[C@H](C)[C@@H](O[C@H]2C[C@@](C)(OC)[C@@H](OC(=O)NCCc3ccc(O)cc3)[C@H](C)O2)[C@H](C)[C@@H](O[C@@H]2O[C@H](C)C[C@H](N(C)C)[C@H]2O)[C@](C)(OC)C[C@@H](C)C(=O)[C@H](C)[C@@H](O)[C@]1(C)O`, the MIC is 0.12 µg/mL (≈ 0.132 µM) in the assay on Streptococcus pneumoniae [1]; 128 µg/mL (≈ 140 µM) against Streptococcus pneumoniae [2]; 4 µg/mL (≈ 4.39 µM) with Streptococcus pneumoniae [3]; 128 µg/mL (≈ 140 µM) against Streptococcus pneumoniae [4]; 0.25 µg/mL (≈ 0.274 µM) with Staphylococcus aureus [5]; 16 µg/mL (≈ 17.6 µM) in the assay with Staphylococcus aureus [6]. Further, the MIC in the assay on Streptococcus pyogenes [7] was found to be 0.03 µg/mL (≈ 0.0329 µM); in the assay with Streptococcus pyogenes [8], 0.25 µg/mL (≈ 0.274 µM).
Turning to `CC[C@H]1OC(=O)[C@H](C)[C@@H](O[C@H]2C[C@@](C)(OC)[C@@H](OC(=O)NCCc3ccccc3Cl)[C@H](C)O2)[C@H](C)[C@@H](O[C@@H]2O[C@H](C)C[C@H](N(C)C)[C@H]2O)[C@](C)(OC)C[C@@H](C)C(=O)[C@H](C)[C@@H](O)[C@]1(C)O`, the MIC in the assay on Streptococcus pneumoniae [1] came out at 0.06 µg/mL (≈ 0.0645 µM); with Streptococcus pneumoniae [2], 16 µg/mL (≈ 17.2 µM); in the assay with Streptococcus pneumoniae [3] it was 0.5 µg/mL (≈ 0.538 µM); in the assay with Streptococcus pneumoniae [4], 32 µg/mL (≈ 34.4 µM); in the assay on Staphylococcus aureus [5] it was 0.12 µg/mL (≈ 0.129 µM); with Staphylococcus aureus [6], 0.25 µg/mL (≈ 0.269 µM). The MIC against Streptococcus pyogenes [7] came to 0.03 µg/mL (≈ 0.0323 µM); in the assay with Streptococcus pyogenes [8], 0.5 µg/mL (≈ 0.538 µM).
For `CC[C@H]1OC(=O)[C@H](C)[C@@H](O[C@H]2C[C@@](C)(OC)[C@@H](OC(=O)NCCc3ccc4c(c3)OCO4)[C@H](C)O2)[C@H](C)[C@@H](O[C@@H]2O[C@H](C)C[C@H](N(C)C)[C@H]2O)[C@](C)(OC)C[C@@H](C)C(=O)[C@H](C)[C@@H](O)[C@]1(C)O`, the MIC against Streptococcus pneumoniae [1] is 0.06 µg/mL (≈ 0.0639 µM); against Streptococcus pneumoniae [2], 32 µg/mL (≈ 34.1 µM); in the assay with Streptococcus pneumoniae [3], 0.25 µg/mL (≈ 0.266 µM); in the assay on Streptococcus pneumoniae [4], 64 µg/mL (≈ 68.1 µM); with Staphylococcus aureus [5] it was 0.25 µg/mL (≈ 0.266 µM); with Staphylococcus aureus [6] it was 0.5 µg/mL (≈ 0.532 µM). Moreover, the MIC in the assay with Streptococcus pyogenes [7] and against Streptococcus pyogenes [8] was 0.5 µg/mL (≈ 0.532 µM) each time.
With `CC[C@H]1OC(=O)[C@H](C)[C@@H](O[C@H]2C[C@@](C)(OC)[C@@H](OC(=O)NCCCC(=O)NCc3ccccc3)[C@H](C)O2)[C@H](C)[C@@H](O[C@@H]2O[C@H](C)C[C@H](N(C)C)[C@H]2O)[C@](C)(OC)C[C@@H](C)C(=O)[C@H](C)[C@@H](O)[C@]1(C)O`, the MIC amounted to 0.03 µg/mL (≈ 0.031 µM) against Streptococcus pneumoniae [1]; 2 µg/mL (≈ 2.07 µM) against Streptococcus pneumoniae [2]; 0.5 µg/mL (≈ 0.517 µM) in the assay with Streptococcus pneumoniae [3]; 0.25 µg/mL (≈ 0.259 µM) with Streptococcus pneumoniae [4]; 0.12 µg/mL (≈ 0.124 µM) in the assay on Staphylococcus aureus [5]; 4 µg/mL (≈ 4.14 µM) against Staphylococcus aureus [6]. In addition, the MIC against Streptococcus pyogenes [7] came out at 0.25 µg/mL (≈ 0.259 µM); against Streptococcus pyogenes [8] it was 64 µg/mL (≈ 66.2 µM).
On to `CC[C@H]1OC(=O)[C@H](C)[C@@H](O[C@H]2C[C@@](C)(OC)[C@@H](OC(=O)NCCCC(=O)NCc3ccc(F)cc3)[C@H](C)O2)[C@H](C)[C@@H](O[C@@H]2O[C@H](C)C[C@H](N(C)C)[C@H]2O)[C@](C)(OC)C[C@@H](C)C(=O)[C@H](C)[C@@H](O)[C@]1(C)O`, for which the MIC in the assay with Streptococcus pneumoniae [1] was determined as 0.03 µg/mL (≈ 0.0305 µM); in the assay on Streptococcus pneumoniae [2], 1 µg/mL (≈ 1.02 µM); in the assay with Streptococcus pneumoniae [3], 0.25 µg/mL (≈ 0.254 µM); in the assay with Streptococcus pneumoniae [4] it was 2 µg/mL (≈ 2.03 µM); with Staphylococcus aureus [5] it was 0.12 µg/mL (≈ 0.122 µM); in the assay on Staphylococcus aureus [6], 1 µg/mL (≈ 1.02 µM). Also, the MIC with Streptococcus pyogenes [7] worked out at 0.25 µg/mL (≈ 0.254 µM); with Streptococcus pyogenes [8], 16 µg/mL (≈ 16.3 µM).
On to `CC[C@H]1OC(=O)[C@H](C)[C@@H](O[C@H]2C[C@@](C)(OC)[C@@H](OC(=O)NCCCC(=O)NCc3ccc(OC)cc3)[C@H](C)O2)[C@H](C)[C@@H](O[C@@H]2O[C@H](C)C[C@H](N(C)C)[C@H]2O)[C@](C)(OC)C[C@@H](C)C(=O)[C@H](C)[C@@H](O)[C@]1(C)O`, for which the MIC stood at 0.03 µg/mL (≈ 0.0301 µM) in the assay on Streptococcus pneumoniae [1]; 0.06 µg/mL (≈ 0.0602 µM) in the assay with Streptococcus pneumoniae [2]; 0.25 µg/mL (≈ 0.251 µM) with Streptococcus pneumoniae [3]; 1 µg/mL (≈ 1 µM) in the assay on Streptococcus pneumoniae [4]; 0.12 µg/mL (≈ 0.12 µM) in the assay with Staphylococcus aureus [5]; 8 µg/mL (≈ 8.03 µM) against Staphylococcus aureus [6]. Besides, the MIC with Streptococcus pyogenes [7] worked out at 0.03 µg/mL (≈ 0.0301 µM); against Streptococcus pyogenes [8], 0.5 µg/mL (≈ 0.502 µM).
In the case of `CC[C@H]1OC(=O)[C@H](C)[C@@H](O[C@H]2C[C@@](C)(OC)[C@@H](OC(=O)NCCCC(=O)NCCc3ccc(O)cc3)[C@H](C)O2)[C@H](C)[C@@H](O[C@@H]2O[C@H](C)C[C@H](N(C)C)[C@H]2O)[C@](C)(OC)C[C@@H](C)C(=O)[C@H](C)[C@@H](O)[C@]1(C)O`, the MIC against Streptococcus pneumoniae [1] is 0.03 µg/mL (≈ 0.0301 µM); in the assay with Streptococcus pneumoniae [2], 0.25 µg/mL (≈ 0.251 µM); against Streptococcus pneumoniae [3], 0.5 µg/mL (≈ 0.502 µM); in the assay on Streptococcus pneumoniae [4], 1 µg/mL (≈ 1 µM); against Staphylococcus aureus [5], 0.5 µg/mL (≈ 0.502 µM); in the assay with Staphylococcus aureus [6] it was 9 µg/mL (≈ 9.03 µM). Also, the figures for the MIC in the assay with Streptococcus pyogenes [7] and in the assay on Streptococcus pyogenes [8] were 0.5 µg/mL (≈ 0.502 µM) and 8 µg/mL (≈ 8.03 µM), respectively.
Regarding `CC[C@H]1OC(=O)[C@H](C)[C@@H](O[C@H]2C[C@@](C)(OC)[C@@H](OC(=O)NCCCC(=O)NCCc3ccccc3Cl)[C@H](C)O2)[C@H](C)[C@@H](O[C@@H]2O[C@H](C)C[C@H](N(C)C)[C@H]2O)[C@](C)(OC)C[C@@H](C)C(=O)[C@H](C)[C@@H](O)[C@]1(C)O`, the MIC with Streptococcus pneumoniae [1] is 0.03 µg/mL (≈ 0.0296 µM); against Streptococcus pneumoniae [2], 32 µg/mL (≈ 31.5 µM); in the assay on Streptococcus pneumoniae [3], 1 µg/mL (≈ 0.986 µM); against Streptococcus pneumoniae [4] it was 32 µg/mL (≈ 31.5 µM); against Staphylococcus aureus [5], 0.25 µg/mL (≈ 0.246 µM); with Staphylococcus aureus [6] it was 32 µg/mL (≈ 31.5 µM). Besides, the figures for the MIC with Streptococcus pyogenes [7] and in the assay with Streptococcus pyogenes [8] were 0.03 µg/mL (≈ 0.0296 µM) and 1 µg/mL (≈ 0.986 µM), respectively.
On to `CCCNC(=O)O[C@H]1[C@H](C)O[C@@H](O[C@H]2[C@H](C)[C@@H](O[C@@H]3O[C@H](C)C[C@H](N(C)C)[C@H]3O)[C@](C)(OC)C[C@@H](C)C(=O)[C@H](C)[C@@H](O)[C@](C)(O)[C@@H](CC)OC(=O)[C@@H]2C)C[C@@]1(C)OC`, for which the MIC against Streptococcus pneumoniae [1] amounted to 0.25 µg/mL (≈ 0.3 µM); in the assay on Streptococcus pneumoniae [2], 64 µg/mL (≈ 76.8 µM); against Streptococcus pneumoniae [3], 2 µg/mL (≈ 2.4 µM); with Streptococcus pneumoniae [4] it was 32 µg/mL (≈ 38.4 µM); against Staphylococcus aureus [5] it was 0.25 µg/mL (≈ 0.3 µM); against Staphylococcus aureus [6], 16 µg/mL (≈ 19.2 µM). Also, the MIC is 0.5 µg/mL (≈ 0.6 µM) against Streptococcus pyogenes [7] and 1 µg/mL (≈ 1.2 µM) against Streptococcus pyogenes [8].
Regarding `CCCCNC(=O)O[C@H]1[C@H](C)O[C@@H](O[C@H]2[C@H](C)[C@@H](O[C@@H]3O[C@H](C)C[C@H](N(C)C)[C@H]3O)[C@](C)(OC)C[C@@H](C)C(=O)[C@H](C)[C@@H](O)[C@](C)(O)[C@@H](CC)OC(=O)[C@@H]2C)C[C@@]1(C)OC`, the MIC in the assay on Streptococcus pneumoniae [1] was 0.25 µg/mL (≈ 0.295 µM); in the assay on Streptococcus pneumoniae [2], 64 µg/mL (≈ 75.6 µM); against Streptococcus pneumoniae [3] it was 1 µg/mL (≈ 1.18 µM); against Streptococcus pneumoniae [4], 64 µg/mL (≈ 75.6 µM); in the assay with Staphylococcus aureus [5] it was 0.25 µg/mL (≈ 0.295 µM); in the assay with Staphylococcus aureus [6], 8 µg/mL (≈ 9.44 µM). Moreover, the MIC with Streptococcus pyogenes [7] was 0.25 µg/mL (≈ 0.295 µM); against Streptococcus pyogenes [8] it was 4 µg/mL (≈ 4.72 µM).
On to `CCCCCNC(=O)O[C@H]1[C@H](C)O[C@@H](O[C@H]2[C@H](C)[C@@H](O[C@@H]3O[C@H](C)C[C@H](N(C)C)[C@H]3O)[C@](C)(OC)C[C@@H](C)C(=O)[C@H](C)[C@@H](O)[C@](C)(O)[C@@H](CC)OC(=O)[C@@H]2C)C[C@@]1(C)OC`, for which the MIC amounted to 0.06 µg/mL (≈ 0.0697 µM) in the assay on Streptococcus pneumoniae [1]; 32 µg/mL (≈ 37.2 µM) against Streptococcus pneumoniae [2]; 0.25 µg/mL (≈ 0.29 µM) in the assay on Streptococcus pneumoniae [3]; 128 µg/mL (≈ 149 µM) in the assay with Streptococcus pneumoniae [4]; 0.25 µg/mL (≈ 0.29 µM) with Staphylococcus aureus [5]; 16 µg/mL (≈ 18.6 µM) against Staphylococcus aureus [6]. For the same molecule, the MIC came out at 0.03 µg/mL (≈ 0.0348 µM) with Streptococcus pyogenes [7] and 0.12 µg/mL (≈ 0.139 µM) with Streptococcus pyogenes [8].
As for `CC[C@H]1OC(=O)[C@H](C)[C@@H](O[C@H]2C[C@@](C)(OC)[C@@H](OC(=O)NCCCC(=O)NC3CCCCC3)[C@H](C)O2)[C@H](C)[C@@H](O[C@@H]2O[C@H](C)C[C@H](N(C)C)[C@H]2O)[C@](C)(OC)C[C@@H](C)C(=O)[C@H](C)[C@@H](O)[C@]1(C)O`, the MIC against Streptococcus pneumoniae [1] was determined as 0.03 µg/mL (≈ 0.0313 µM); in the assay with Streptococcus pneumoniae [2], 32 µg/mL (≈ 33.4 µM); against Streptococcus pneumoniae [3], 2 µg/mL (≈ 2.09 µM); in the assay with Streptococcus pneumoniae [4], 64 µg/mL (≈ 66.8 µM); against Staphylococcus aureus [5] it was 0.5 µg/mL (≈ 0.522 µM); against Staphylococcus aureus [6] it was 8 µg/mL (≈ 8.35 µM). Besides, the figures for the MIC with Streptococcus pyogenes [7] and with Streptococcus pyogenes [8] were 0.25 µg/mL (≈ 0.261 µM) and 8 µg/mL (≈ 8.35 µM), respectively.
